Source: patent EP1247803A2, “Indolinone compounds suitable for modulation of protein kinases” (Sugen, Inc., priority 1996, dated 1998)

Legend:
PDGF-R = PDGF-R (Homo sapiens, UniProt P09619); assay: PDGF-R ELISA; format: cell-based
Text: A PDGF-R ELISA is described in International Patent Publication No. WO 96/40116, published December 19, 1996 by Tang et al.

EGFR = molecular target: T1, EGFR (Homo sapiens, UniProt P00533); assay: EGFR ELISA assay (in vitro kinase activity, EGFR captured from A431 cell lysate); format: biochemical; set-up: concentration or dose not given beside the values
T1 construct: Add 7 ug A431 cell lysate per well (EGFR source); endogenous in cells; host or cells: A431
Procedure, shortened: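 EGFR from A431 lysate was captured on plates coated with anti-EGFR antibody. Compounds were added 30 min before a 5 min phosphorylation with 3 µM ATP/5 mM MnCl2, which was stopped with 20 mM EDTA. Phosphotyrosine was detected with rabbit anti-phosphotyrosine, then a peroxidase-conjugated secondary and ABTS/H2O2, read at 410 nm.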

PDGF-R, sequence (P09619 33-1106, species assumed): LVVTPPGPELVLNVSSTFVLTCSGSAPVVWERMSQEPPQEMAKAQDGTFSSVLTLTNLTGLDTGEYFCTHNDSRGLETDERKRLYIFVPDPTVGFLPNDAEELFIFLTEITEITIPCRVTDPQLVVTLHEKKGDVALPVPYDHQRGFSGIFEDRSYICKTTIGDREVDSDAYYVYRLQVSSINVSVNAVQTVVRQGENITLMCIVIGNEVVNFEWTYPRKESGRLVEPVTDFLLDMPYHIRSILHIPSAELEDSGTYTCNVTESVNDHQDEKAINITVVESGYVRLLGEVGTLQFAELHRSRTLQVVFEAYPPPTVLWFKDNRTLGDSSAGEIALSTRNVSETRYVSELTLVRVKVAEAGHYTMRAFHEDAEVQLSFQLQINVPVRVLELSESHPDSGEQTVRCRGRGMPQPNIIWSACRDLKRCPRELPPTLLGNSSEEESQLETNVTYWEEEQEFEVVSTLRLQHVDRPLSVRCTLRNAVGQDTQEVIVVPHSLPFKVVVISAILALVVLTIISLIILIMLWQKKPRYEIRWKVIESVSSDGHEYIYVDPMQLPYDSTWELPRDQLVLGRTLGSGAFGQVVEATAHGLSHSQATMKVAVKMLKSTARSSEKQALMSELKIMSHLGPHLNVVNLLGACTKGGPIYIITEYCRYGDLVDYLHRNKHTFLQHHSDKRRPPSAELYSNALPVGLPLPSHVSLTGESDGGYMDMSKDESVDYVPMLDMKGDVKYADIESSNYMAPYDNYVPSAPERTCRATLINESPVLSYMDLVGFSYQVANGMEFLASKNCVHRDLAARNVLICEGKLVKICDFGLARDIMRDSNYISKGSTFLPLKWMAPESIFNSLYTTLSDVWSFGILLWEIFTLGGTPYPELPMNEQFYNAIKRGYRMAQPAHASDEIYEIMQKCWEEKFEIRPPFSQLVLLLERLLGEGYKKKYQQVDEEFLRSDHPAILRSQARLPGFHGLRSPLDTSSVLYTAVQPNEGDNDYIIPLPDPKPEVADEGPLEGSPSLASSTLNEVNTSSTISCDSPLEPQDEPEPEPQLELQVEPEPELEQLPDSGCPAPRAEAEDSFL
T1 sequence (P00533 25-1210): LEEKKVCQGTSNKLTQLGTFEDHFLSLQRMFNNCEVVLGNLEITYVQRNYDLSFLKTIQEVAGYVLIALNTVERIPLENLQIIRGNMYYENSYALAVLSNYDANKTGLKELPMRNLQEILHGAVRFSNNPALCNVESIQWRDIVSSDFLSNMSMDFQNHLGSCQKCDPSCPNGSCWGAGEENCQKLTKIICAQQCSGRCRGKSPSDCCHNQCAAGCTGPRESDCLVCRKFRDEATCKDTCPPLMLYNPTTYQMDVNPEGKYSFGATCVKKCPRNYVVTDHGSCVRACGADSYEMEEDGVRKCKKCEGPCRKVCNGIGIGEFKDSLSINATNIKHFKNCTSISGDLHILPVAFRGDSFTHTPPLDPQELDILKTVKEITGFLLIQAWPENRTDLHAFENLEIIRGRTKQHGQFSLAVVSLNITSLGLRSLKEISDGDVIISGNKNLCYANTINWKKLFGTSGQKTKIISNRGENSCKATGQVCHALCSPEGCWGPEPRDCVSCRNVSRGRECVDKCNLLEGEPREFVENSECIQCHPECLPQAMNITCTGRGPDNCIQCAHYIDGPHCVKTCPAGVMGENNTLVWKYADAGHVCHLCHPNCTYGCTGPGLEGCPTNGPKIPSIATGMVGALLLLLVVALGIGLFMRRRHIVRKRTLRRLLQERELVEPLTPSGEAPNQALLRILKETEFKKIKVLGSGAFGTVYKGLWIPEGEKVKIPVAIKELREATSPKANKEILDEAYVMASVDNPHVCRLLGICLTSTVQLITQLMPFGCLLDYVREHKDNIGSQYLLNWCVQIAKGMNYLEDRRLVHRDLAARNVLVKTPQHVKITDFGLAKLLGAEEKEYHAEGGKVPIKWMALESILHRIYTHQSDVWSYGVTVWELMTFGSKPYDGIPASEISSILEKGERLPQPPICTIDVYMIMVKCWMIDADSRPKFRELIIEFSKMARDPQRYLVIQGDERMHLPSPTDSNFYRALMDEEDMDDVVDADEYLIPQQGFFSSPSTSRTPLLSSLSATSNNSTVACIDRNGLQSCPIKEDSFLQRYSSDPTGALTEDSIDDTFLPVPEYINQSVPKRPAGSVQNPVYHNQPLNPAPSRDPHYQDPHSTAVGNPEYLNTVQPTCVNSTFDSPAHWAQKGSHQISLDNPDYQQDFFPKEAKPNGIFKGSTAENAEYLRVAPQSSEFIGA

SMILES	PDGF Kinase %Inhibition (PDGF-R)	Biochem EGFR %Inhibition (EGFR)
Cc1cc(C=C2C(=O)Nc3ccc(S(=O)(=O)Nc4ccc(C(F)(F)F)cc4)cc32)[nH]n1 [10725/E05]	27.5%	-5.5%
COc1cc(C)cc(O)c1C=C1C(=O)Nc2ccc(S(=O)(=O)Nc3ccc(C(F)(F)F)cc3)cc21 [10725/E06]	39.0%	-17.7%
COC(=O)Cc1c(Cl)[nH]c(C=C2C(=O)Nc3ccc(Br)c(C)c32)c1C(=O)OC [10725/C09]	34.7%	23.6%
COc1cc(C)cc(O)c1C=C1C(=O)Nc2ccc(Br)c(C)c21 [10725/C06]	46.6%	-11.5%
O=C1Nc2ccc(S(=O)(=O)N3CCOCC3)cc2C1=Cc1c[nH]cn1 [10725/F11]	20.3%	20.8%
O=C1Nc2ccc(S(=O)(=O)N3CCOCC3)cc2C1=Cc1ccc(N2CCOCC2)cc1 [10725/F08]	28.9%	15.4%
CNS(=O)(=O)c1ccc2c(c1)C(=Cc1ccc(N3CCN(C=O)CC3)cc1)C(=O)N2 [10725/D07]	18.4%	-25.8%
CNS(=O)(=O)c1ccc2c(c1)C(=Cc1ccc(C)o1)C(=O)N2 [10725/D04]	12.2%	4.3%
CNS(=O)(=O)c1ccc2c(c1)C(=Cc1c(Br)cnn1-c1ccc(Cl)cc1)C(=O)N2 [10725/D10]	43.8%	11.7%
COc1ccc(Br)c(C=C2C(=O)Nc3ccc(Br)c(C)c32)c1O [10725/C03]	19.3%	-12.7%
CCOC(=O)c1[nH]c(C=C2C(=O)Nc3ccc(I)cc32)c(C(=O)OC)c1C [10726/B03]	16.4%	3.5%
Cc1cn(C)cc1C=C1C(=O)Nc2ccc(I)cc21 [10726/B06]	34.1%	6.6%
Cc1cn(C)cc1C=C1C(=O)Nc2c(Br)cc(Br)cc21 [10726/A06]	22.1%	0.2%
O=C1Nc2ccc(F)cc2C1=C1C(=O)Nc2c(Br)cc(Br)cc21 [10726/A08]	10.7%	-28.4%
CCc1ccc(C=C2C(=O)Nc3ccc(I)cc32)s1 [10726/B10]	6.2%	40.8%
Cc1cc(C=C2C(=O)Nc3c(Br)cc(Br)cc32)cc(C(C)(C)C)c1O [10726/A04]	44.2%	40.8%
CNS(=O)(=O)c1ccc2c(c1)C(=Cc1ccc(N3CCOCC3)cc1)C(=O)N2 [10725/D08]	38.5%	20.0%
O=C1Nc2ccc(S(=O)(=O)Nc3ccc(C(F)(F)F)cc3)cc2C1=Cc1c[nH]cn1 [10725/E11]	20.8%	-36.0%
Cc1ccc(C=C2C(=O)Nc3ccc(S(=O)(=O)Nc4ccc(C(F)(F)F)cc4)cc32)o1 [10725/E04]	3.1%	31.2%
O=C1Nc2ccc(CCCl)cc2C1=Cc1c(Br)cnn1-c1ccc(Cl)cc1 [10725/G10]	44.7%	17.8%
O=C1Nc2ccc(S(=O)(=O)N3CCOCC3)cc2C1=Cc1ccc[nH]1 [10717/F09]		1.8%

SMILES	PDGF Kinase %Inhibition (PDGF-R)	Biochem EGFR %Inhibition (EGFR)
Cc1c(Br)ccc2c1C(=Cc1c[nH]cn1)C(=O)N2 [10725/C11]	80.7%	-22.1%
Cc1c(Br)ccc2c1C(=Cc1ccc(N3CCN(C=O)CC3)cc1)C(=O)N2 [10725/C07]	107.0%	-16.5%
CNS(=O)(=O)c1ccc2c(c1)C(=Cc1cc(C)n[nH]1)C(=O)N2 [10725/D05]	10.7%	-19.7%
O=C1Nc2ccccc2C1=C1C(=O)Nc2c(Br)cc(Br)cc21 [10726/A09]	16.4%	-6.3%
COc1ccc(C=C2C(=O)Nc3c(Br)cc(Br)cc32)cc1 [10726/A11]	23.3%	6.2%
O=C1Nc2c(Br)cc(Br)cc2C1=Cc1cc(O)c2c(c1O)CCCC2 [10726/A07]	-36.8%	88.7%
O=C1Nc2c(Br)cc(Br)cc2C1=Cc1ccc(F)cc1 [10717/A05]		16.6%
COC(=O)Cc1c(Cl)[nH]c(C=C2C(=O)Nc3ccc(S(=O)(=O)N4CCOCC4)cc32)c1C(=O)OC [10725/F09]	28.4%	32.2%
O=C1Nc2ccc(CCCl)cc2C1=Cc1sccc1Br [10725/G02]	-11.8%	-20.5%
Cc1c(Br)ccc2c1C(=Cc1ccc(N3CCOCC3)cc1)C(=O)N2 [10725/C08]	101.7%	-11.9%
O=C1Nc2ccc(S(=O)(=O)N3CCOCC3)cc2C1=Cc1sccc1Br [10725/F02]	-15.1%	-3.7%
COc1ccc(Br)c(C=C2C(=O)Nc3ccc(S(=O)(=O)Nc4ccc(C(F)(F)F)cc4)cc32)c1O [10725/E03]	10.7%	-10.3%
Cc1ccc(C=C2C(=O)Nc3ccc(CCCl)cc32)o1 [10725/G04]	-8.9%	-12.3%
Cc1c(Br)ccc2c1C(=Cc1ccc(Br)o1)C(=O)N2 [10726/C05]	25.2%	16.7%
O=C1Nc2ccc(I)cc2C1=Cc1ccc(Br)o1 [10726/B05]	27.1%	49.0%
COc1ccc(Br)c(C=C2C(=O)Nc3ccc(CCCl)cc32)c1O [10725/G03]	-6.5%	-2.5%
COC(=O)Cc1c(Cl)[nH]c(C=C2C(=O)Nc3ccc(S(=O)(=O)Nc4ccc(C(F)(F)F)cc4)cc32)c1C(=O)OC [10725/E09]	37.5%	31.4%
O=CN1CCN(c2ccc(C=C3C(=O)Nc4ccc(CCCl)cc43)cc2)CC1 [10725/G07]	23.7%	-25.8%
O=C1Nc2ccc(S(=O)(=O)Nc3ccc(C(F)(F)F)cc3)cc2C1=Cc1ccc(N2CCOCC2)cc1 [10725/E08]	48.6%	14.2%
O=C1Nc2ccc(S(=O)(=O)N3CCOCC3)cc2C1=Cc1ccc(Br)cc1 [10717/F08]		-23.4%
CCOc1ccccc1C=C1C(=O)Nc2ccc(CCCl)cc21 [10717/G02]		32.3%

SMILES	PDGF Kinase %Inhibition (PDGF-R)	Biochem EGFR %Inhibition (EGFR)
Cc1cc(C=C2C(=O)Nc3ccc(Br)c(C)c32)[nH]n1 [10725/C05]	28.9%	-21.9%
Cc1cc(C=C2C(=O)Nc3ccc(Br)c(C)c32)cc(C(C)(C)C)c1O [10726/C04]	36.6%	58.4%
Cc1c(Br)ccc2c1C(=Cc1sccc1Br)C(=O)N2 [10725/C02]	-5.1%	-43.4%
Cc1cc(C=C2C(=O)Nc3ccc(I)cc32)cc(C(C)(C)C)c1O [10726/B04]	39.1%	71.1%
Cc1cc(C=C2C(=O)Nc3ccc(S(=O)(=O)N4CCOCC4)cc32)[nH]n1 [10725/F05]	-5.6%	-18.9%
CNS(=O)(=O)c1ccc2c(c1)C(=Cc1sccc1Br)C(=O)N2 [10725/D02]	-8.4%	-23.9%
Cc1ccc(C=C2C(=O)Nc3ccc(Br)c(C)c32)o1 [10725/C04]	25.1%	31.8%
Cc1c(Br)ccc2c1C(=Cc1c(Br)cnn1-c1ccc(Cl)cc1)C(=O)N2 [10725/C10]	38.5%	5.3%
CCc1ccc(C=C2C(=O)Nc3c(Br)cc(Br)cc32)s1 [10726/A10]	8.1%	26.5%
COc1cccc(O)c1C=C1C(=O)Nc2ccc(S(=O)(=O)N3CCOCC3)cc21 [10717/F10]		-26.4%
O=C1Nc2ccc(F)cc2C1=C1C(=O)Nc2ccc(I)cc21 [10726/B08]	24.6%	23.6%
COc1ccc(Br)c(C=C2C(=O)Nc3ccc(S(=O)(=O)N4CCOCC4)cc32)c1O [10725/F03]	-27.1%	-36.2%
COc1cc(C)cc(O)c1C=C1C(=O)Nc2ccc(S(=O)(=O)N3CCOCC3)cc21 [10725/F06]	14.1%	-37.8%
CNS(=O)(=O)c1ccc2c(c1)C(=Cc1c(O)cc(C)cc1OC)C(=O)N2 [10725/D06]	21.7%	-26.4%
COc1ccc(C=C2C(=O)Nc3ccc(I)cc32)cc1 [10726/B11]	23.3%	39.4%
CNS(=O)(=O)c1ccc2c(c1)C(=Cc1c(Br)ccc(OC)c1O)C(=O)N2 [10725/D03]	5.4%	-2.5%
O=C1Nc2ccc(I)cc2C1=Cc1cc(O)c2c(c1O)CCCC2 [10726/B07]	-59.5%	72.4%
O=C1Nc2ccc(CCCl)cc2C1=Cc1cccs1 [10717/G03]		18.8%
Cc1[nH]c(C=C2C(=O)Nc3ccc(S(=O)(=O)N4CCOCC4)cc32)c(Br)c1Br [10717/F11]		91.2%
Cc1ccc(C=C2C(=O)Nc3ccc(S(=O)(=O)N4CCOCC4)cc32)s1 [10717/F07]		-14.3%
